Reference: patent publication US12180388B2, “Method of treatment of a surface” (Conopco, Inc., priority 2018, dated 2024)

What was measured:
[1] = tested on: mixture of the 7 marine organisms (Pseudoalteromonas atlantica, Cellulophaga lytica, Shewanella algae, Cobetia marina, Vibrio anguillarium, Vibrio …); test: Multispecies biofilm (microfouling) growth inhibition, crystal violet biomass; type: cell-based, mixture of 7 marine organisms; settings: for lactam concentration that inhibited biofilm growth: 7 marine organism mixture, 24, 48 and 72 hr
Protocol: Fresh stock solution of lactam was prepared at 20 mM in DMSO. Lactam stock was then serially diluted in tissue culture plates in 100% ethanol first ten-fold and subsequently to the desired concentrations. Plates were then left to dry overnight in a fume hood. Single species plates were inoculated with each 1×10^6 bacteria/Aspergillus in marine broth and left for 24 hours. Multispecies plates were inoculated with 1×10^5 S. algae, V. anguillarium V. alginolyticus and 1×10^6 C. marina, A. brasiliensis, P. atlantica, C. lytica in marine broth and left for 24 hours, 48 and 72 hours. Plates were washed twice and left overnight to dry. Crystal violet (0.05% w/v) was added for 20 minutes and destained using 100% ethanol. Biomass was measured by optical density (OD) at 570 nm.
The marine species were as used for example 2: Shewanella algae, Cobetia marina, Vibrio alginolyticus, or Pseudoalteromonas atlantica, Aspergillus brasiliensis, Vibrio anguillarium, and Cellulophaga lytica. This time they were used in combination as a mixture to better model the marine environment, and the growth inhibition effect of the lactams on the challenging marine organism mixture was tested. This a challenging test as the presence of marine organisms where the lactam didn't have a growth inhibition effect would be expected to lead to biofilm growth. The results are shown in FIGS. 4 and 5 and Tables 2 and 3.

Cellulophaga lytica = test: Single-species biofilm (microfouling) growth inhibition, crystal violet biomass; type: cell-based; settings: 24 hours; for Optical Density (570 nm): untreated control 0.7; for lactam concentration with biofilm growth inhibition effect: Cellulophaga lytica
Protocol: (§1) Fresh stock solution of lactam was prepared at 20 mM in DMSO. Lactam stock was then serially diluted in tissue culture plates in 100% ethanol first ten-fold and subsequently to the desired concentrations. Plates were then left to dry overnight in a fume hood.
(§2) Single species plates were inoculated with each 1×10^6 bacteria/Aspergillus in marine broth and left for 24 hours. Multispecies plates were inoculated with 1×10^5 S. algae, V. anguillarium V. alginolyticus and 1×10^6 C. marina, A. brasiliensis, P. atlantica, C. lytica in marine broth and left for 24 hours, 48 and 72 hours. Plates were washed twice and left overnight to dry. Crystal violet (0.05% w/v) was added for 20 minutes and destained using 100% ethanol. Biomass was measured by optical density (OD) at 570 nm.
(§3) In this experiment, the plates were treated with lactam at levels of 0.0312 mM to 2 mM as well as an untreated control. The specific levels of lactam measured were of 0.0312 mM, of 0.0625 mM, of 0.125 mM, of 0.25 mM, of 0.5 mM, 1 mM, and 2 mM. This would equate to levels of from ˜6 ppm ([…]) to 400 ppm (2 mM), and to wt. % of 0.0006 wt. % ([…]) to 0.04 wt. % (2 mM). The lactam was provided in a DMSO/ethanol solvent to the plates. The plate was then inoculated with the marine organism or mixture thereof. The rate of growth of the culture was measured after 24 hours days by optical density.

Aspergillus brasiliensis = test: as above; type: cell-based; settings: 24 hours, untreated control 1.1
Protocol: as §1, §2, §3

Vibrio anguillarium = test: as above; type: cell-based; settings: 24 hours, untreated control 0.5
Protocol: as §1, §2, §3

[2] = 0.0312 mM lactam, 24 hr, untreated control 1.3
[3] = 0.0312 mM lactam, 48 hr, untreated control 1.8
[4] = 0.0312 mM lactam, 72 hr, untreated control 1.1
[5] = 0.0625 mM lactam, 24 hr, untreated control 1.3
[6] = 0.0625 mM lactam, 48 hr, untreated control 1.8
[7] = 0.0625 mM lactam, 72 hr, untreated control 1.1
[8] = 0.125 mM lactam, 24 hr, untreated control 1.3
[9] = 0.125 mM lactam, 48 hr, untreated control 1.8
[10] = 0.125 mM lactam, 72 hr, untreated control 1.1
[11] = 0.25 mM lactam, 24 hr, untreated control 1.3
[12] = 0.25 mM lactam, 48 hr, untreated control 1.8
[13] = 0.25 mM lactam, 72 hr, untreated control 1.1
[14] = 0.5 mM lactam, 24 hr, untreated control 1.3
[15] = 0.5 mM lactam, 48 hr, untreated control 1.8
[16] = 0.5 mM lactam, 72 hr, untreated control 1.1
[17] = 1 mM lactam, 24 hr, untreated control 1.3
[18] = 1 mM lactam, 48 hr, untreated control 1.8
[19] = 1 mM lactam, 72 hr, untreated control 1.1
[20] = 2 mM lactam, 24 hr, untreated control 1.3
[21] = 2 mM lactam, 48 hr, untreated control 1.8
[22] = 2 mM lactam, 72 hr, untreated control 1.1

## C=C1NC(=O)C=C1c1ccc(Cl)cc1 [lactam 488, 4-(4-chlorophenyl)-5-methylene-pyrrol-2-one]
[1]; [2]
  Optical Density (570 nm): 1.3
[1]; [3]
  Optical Density (570 nm): 1.5
[1]; [4]
  Optical Density (570 nm): 1.4
[1]; [5]
  Optical Density (570 nm): 1.4
[1]; [6]
  Optical Density (570 nm): 1.8
[1]; [7]
  Optical Density (570 nm): 1.4
[1]; [8]
  Optical Density (570 nm): 1.2
[1]; [9]
  Optical Density (570 nm): 1.7
[1]; [10]
  Optical Density (570 nm): 1.2
[1]; [11]
  Optical Density (570 nm): 1
[1]; [12]
  Optical Density (570 nm): 1.3
[1]; [13]
  Optical Density (570 nm): 1.0
[1]; [14]
  Optical Density (570 nm): 0.6
[1]; [15]
  Optical Density (570 nm): 0.6
[1]; [16]
  Optical Density (570 nm): 0.4
[1]; [17]
  Optical Density (570 nm): 0.3
[1]; [18]
  Optical Density (570 nm): 0.2
[1]; [19]
  Optical Density (570 nm): 0.1
[1]; [20]
  Optical Density (570 nm): 0.1
[1]; [21]
  Optical Density (570 nm): 0.1
[1]; [22]
  Optical Density (570 nm): 0.1
[1]
  lactam concentration that inhibited biofilm growth: > 0.25 mM
Cellulophaga lytica; 0.0312 mM lactam
  Optical Density (570 nm): 0.9
Cellulophaga lytica; 0.0625 mM lactam
  Optical Density (570 nm): 0.9
Cellulophaga lytica; 0.125 mM lactam
  Optical Density (570 nm): 0.8
Cellulophaga lytica; 0.25 mM lactam
  Optical Density (570 nm): 0.8
Cellulophaga lytica; 0.5 mM lactam
  Optical Density (570 nm): 0.2
Cellulophaga lytica; 1 mM lactam
  Optical Density (570 nm): 0.2
Cellulophaga lytica; 2 mM lactam
  Optical Density (570 nm): 0.1
Cellulophaga lytica
  lactam concentration with biofilm growth inhibition effect: > 0.5 mM
Aspergillus brasiliensis; 0.0312 mM lactam
  Optical Density (570 nm): 0.5
Aspergillus brasiliensis; 0.0625 mM lactam
  Optical Density (570 nm): 0.6
Aspergillus brasiliensis; 0.125 mM lactam
  Optical Density (570 nm): 0.5
Aspergillus brasiliensis; 0.25 mM lactam
  Optical Density (570 nm): 0.4
Aspergillus brasiliensis; 0.5 mM lactam
  Optical Density (570 nm): 0.6
Aspergillus brasiliensis; 1 mM lactam
  Optical Density (570 nm): 0.5
Aspergillus brasiliensis; 2 mM lactam
  Optical Density (570 nm): 0.4
Vibrio anguillarium; 0.0312 mM lactam
  Optical Density (570 nm): 0.5
Vibrio anguillarium; 0.0625 mM lactam
  Optical Density (570 nm): 0.6
Vibrio anguillarium; 0.125 mM lactam
  Optical Density (570 nm): 0.7
Vibrio anguillarium; 0.25 mM lactam
  Optical Density (570 nm): 0.6
Vibrio anguillarium; 0.5 mM lactam
  Optical Density (570 nm): 0.2
Vibrio anguillarium; 1 mM lactam
  Optical Density (570 nm): 0.1
Vibrio anguillarium; 2 mM lactam
  Optical Density (570 nm): 0.1

## C=C1NC(=O)C=C1c1ccc(C)cc1 [lactam 491, 5-methylene-4-(p-tolyl)pyrrol-2-one]
[1]; [2]
  Optical Density (570 nm): 1.2
[1]; [3]
  Optical Density (570 nm): 1.7
[1]; [4]
  Optical Density (570 nm): 1.3
[1]; [5]
  Optical Density (570 nm): 1.1
[1]; [6]
  Optical Density (570 nm): 1.8
[1]; [7]
  Optical Density (570 nm): 1.2
[1]; [8]
  Optical Density (570 nm): 0.9
[1]; [9]
  Optical Density (570 nm): 1.6
[1]; [10]
  Optical Density (570 nm): 1.0
[1]; [11]
  Optical Density (570 nm): 0.9
[1]; [12]
  Optical Density (570 nm): 1.4
[1]; [13]
  Optical Density (570 nm): 0.9
[1]; [14]
  Optical Density (570 nm): 1.0
[1]; [15]
  Optical Density (570 nm): 1.2
[1]; [16]
  Optical Density (570 nm): 0.9
[1]; [17]
  Optical Density (570 nm): 0.7
[1]; [18]
  Optical Density (570 nm): 1.3
[1]; [19]
  Optical Density (570 nm): 1.2
[1]; [20]
  Optical Density (570 nm): 0.2
[1]; [21]
  Optical Density (570 nm): 0.2
[1]; [22]
  Optical Density (570 nm): 0.3
[1]
  lactam concentration that inhibited biofilm growth: > 0.25 mM
Cellulophaga lytica; 0.0312 mM lactam
  Optical Density (570 nm): 0.9
Cellulophaga lytica; 0.0625 mM lactam
  Optical Density (570 nm): 1.0
Cellulophaga lytica; 0.125 mM lactam
  Optical Density (570 nm): 0.9
Cellulophaga lytica; 0.25 mM lactam
  Optical Density (570 nm): 0.9
Cellulophaga lytica; 0.5 mM lactam
  Optical Density (570 nm): 1.0
Cellulophaga lytica; 1 mM lactam
  Optical Density (570 nm): 0.5
Cellulophaga lytica; 2 mM lactam
  Optical Density (570 nm): 0.6
Cellulophaga lytica
  lactam concentration with biofilm growth inhibition effect: > 1 mM
Aspergillus brasiliensis; 0.0312 mM lactam
  Optical Density (570 nm): 0.4
Aspergillus brasiliensis; 0.0625 mM lactam
  Optical Density (570 nm): 0.5
Aspergillus brasiliensis; 0.125 mM lactam
  Optical Density (570 nm): 0.5
Aspergillus brasiliensis; 0.25 mM lactam
  Optical Density (570 nm): 0.5
Aspergillus brasiliensis; 0.5 mM lactam
  Optical Density (570 nm): 0.5
Aspergillus brasiliensis; 1 mM lactam
  Optical Density (570 nm): 0.3
Aspergillus brasiliensis; 2 mM lactam
  Optical Density (570 nm): 0.4
Vibrio anguillarium; 0.0312 mM lactam
  Optical Density (570 nm): 0.2
Vibrio anguillarium; 0.0625 mM lactam
  Optical Density (570 nm): 0.7
Vibrio anguillarium; 0.125 mM lactam
  Optical Density (570 nm): 0.7
Vibrio anguillarium; 0.25 mM lactam
  Optical Density (570 nm): 0.3
Vibrio anguillarium; 0.5 mM lactam
  Optical Density (570 nm): 0.4
Vibrio anguillarium; 1 mM lactam
  Optical Density (570 nm): 0.2
Vibrio anguillarium; 2 mM lactam
  Optical Density (570 nm): 0.1
